Experimental data reported in patent publication US20210386733A1, “LYSINE-SPECIFIC HISTONE DEMETHYLASE INHIBITORS FOR THE TREATMENT OF MYELOPROLIFERATIVE NEOPLASMS” (Imago Biosciences, Inc., priority 2019, published 2021).
Counter-ions that a name gives are not always drawn.

Experiments:
[1] = tested on: patients with myelofibrosis; assay: Phase 2B clinical trial of Compound 1 in myelofibrosis (Example 2); type: in vivo, human
Experimental: A multi-center, open label, dose-range finding study to assess the safety, optimally effective dosing rules, steady-state pharmacokinetics and pharmacodynamics of Compound 1 orally once daily in patients with myelofibrosis was conducted in a Phase 1/2a study. • Primary objectives were to evaluate, in MF patients the effect of Compound 1 on: Safety and tolerability • Pharmacokinetics (Phase 1/2a only) • Reduction in spleen volume
This study initiated as a Phase 1/2a study assessing the safety of the starting dose, an 85 day duration of treatment, and the pharmacokinetic and pharmacodynamic effects of Compound 1, with transition to a Phase 2b study incorporating changes supported by the earlier pharmacokinetic and pharmacodynamic studies and safety assessments. This study consisted of two treatment periods: the Initial Treatment Period (ITP), followed by the Additional Treatment Period (ATP). Patients commenced enrolment in the Phase 2b portion of the study, in which the ITP has been extended such that patients were treated daily for 169 days. The ATP, also extended, offered treatment to qualifying patients for an additional 169 days.
Initial Treatment Period. During the ITP, patients initially returned for study assessments twice weekly for the first week (ITP Days 0, 3 and 7); post-dosing of 3 patients at the new Ds, the DSMC convened to assess the necessity of the Day 3 visit. Patients returned weekly for the next 7 weeks (ITP Days 14, 21, 28, 35, 42, 49 and 56), at least bi-weekly for 8 weeks (ITP Days 70, 84, 98 and 112) and then monthly for 8 weeks (ITP Days 140 and 168). It was anticipated that by Week 8 (Day 56) patients will have achieved a stable dose, with weekly titrations no longer necessary. For the exceptional patient whose dose had not stabilized, weekly visits continued at the PI's discretion (note: bi-weekly visits may also continue post Day 112). On Days 84 and 168, patients underwent abdominal magnetic resonance imaging (MRI), or computerized tomography (CT) if the patient was not a candidate for MRI. On Day 168, bone marrow sampling was also required. Prior to or at the Day 168 visit, but ideally at the Day 140 visit for logistical purposes, a ‘qualification’ assessment was made to determine whether the patient is deriving clinical benefit (defined as not meeting progressive disease criteria and safely tolerating Compound 1; this definition applies throughout document and will not be repeated with each reference to clinical benefit). Such patients qualified for entry into the ATP, a transition which was anticipated to occur without interruption in dosing. Patients not deriving clinical benefit, or who achieve complete response (CR), partial response (PR) or clinical improvement (CI) and subsequently relapse the equivalent of treatment failures, discontinued Compound 1 and undergo End of Treatment (EoT), pre-End of Study (pre-EoS) and End of Study (EoS) visits.
Initial Treatment Period (ITP). Treatment began on Day 0 at the Ds of 0.5 mg/kg QD for all patients entering the Phase 2b portion of the study. Dose-adjustments could be made at each clinic visit (with the exception of Day 3), with dose-titration, either upward or downward, contingent on the comparison of hematology values from the prior visit, as dictated by the rules below. The Dpi was anticipated to be ≤1.2 mg/kg QD; however, this was not the upper limit for titration purposes as the dose needed to achieve a therapeutic effect will vary among patients and may change over time. The platelet titration target expected to be associated with a clinically significant therapeutic effect was a platelet count of ≥50,000 to ≤75,000/μL (50-75×10^9/L). Titration and re-challenge rules based on evaluation of platelet, absolute neutrophil (ANC) and hemoglobin (Hgb) counts are noted below. […]

[2] = Non-clinical studies of acute toxicity; type: in vivo; conditions: even at extremely high doses (human equivalent dose (HED) ˜20-40 mg/kg)
[3] = tested on: somatic mutations in myeloid neoplasm genes (JAK2, CALR, MPL, ASXL1 etc.); assay: Sequencing of somatic mutations, variant allele frequency (VAF) in treated patients (Example 3); type: in vivo, human
Source text: The following characterize the sequencing protocol: • Samples: Germline (buccal or hair) and “Tumor” (bone marrow, peripheral blood, granulocytes) • Target enrichment: 11,736 hybridization probes in IDT AML panel targeting 261 genes (˜6300 exons) recurrently mutated in myeloid neoplasms • Illumina sequencing: 2×150 bp paired-end sequencing; ˜10 million pairs sequenced per sample • Aiming for sequencing depth >500; Actual: >1000 for >90% of samples • Analysis: Burrows-Wheeler alignment (BWA)=>VARSCAN2 genotyper=>IGV for CALR, etc. • Cutoffs for somatic calls: Sequencing Depth: >20 Mutant (or Variant) Allele Frequency (VAF): >15% • Annotation: All calls submitted to CADD (Combined Annotation Dependent Depletion) at University of Washington • CADD score cutoff >20 identifies the top 1% of the most deleterious mutations

[4] = Phase 2b patients at Week 12, n=14

CN1CCN(C(=O)[C@H](CCCN[C@@H]2C[C@H]2c2ccc(F)cc2)NC(=O)c2ccc(-n3ccnn3)cc2)CC1 [Compound 1, N-[(2S)-5-{[(1R, 2S)-2-(4-fluorophenyl)cyclopropyl]amino}-1-(4-methylpiperazin-1-yl)-1-oxopentan-2-yl]-4-(1H-1,2,3-triazol-1-yl)benzamide, bis-tosylate salt]
patients with a decrease in spleen volume [1, 4]: 86% | patients with a spleen volume reduction of ≥20% [1, 4]: 29% | patients with a spleen volume reduction of ≥35% [1, 4]: 14% | median change in spleen volume to Wk 12 ([1]; Phase 2b patients, n=14): −15% | patients with a decrease in symptom score ([1]; all patients at Week 12, n=32): 78% | patients with a reduction in symptom score of ≥50% ([1]; all patients at Week 12, n=32): 25% | acute toxicity in non-clinical studies [2]: no evidence | patients showing a decrease in some or all somatic mutations ([3]; 22 patients): 32% | patients with increased VAFs ([3]; 22 patients): 14% | patients with stable VAFs ([3]; 22 patients): 55% | progression to AML ([3]; human, in vivo): No progression to AML | new mutations ([3]; patients followed up to 550+ days): No new mutations identified
